Experimental data published in US8067611B2, “Substituted 1-(thiazolyl)-and 1-(isothiazolyl)pyrazol-4-ylacetic acids, processes for their preparation and their use as herbicides and plant growth regulators” (Bayer CropScience AG, priority 2008, dated 2011).

Key:
Assay type in all cases: in vivo
harmful plants = assay: Pre-emergence herbicidal effect, greenhouse pot test; settings: application rate of 1 kg or less of active substance per hectare, scored after about 3 weeks
From the text: (§1) Seeds of monocotyledonous or dicotyledonous weed plants or crop plants are planted in wood-fiber pots in sandy loam and covered with soil. The compounds (I) according to the invention, formulated in the form of wettable powders (WP), are then applied as aqueous suspension or emulsion at a water application rate of 600 I/ha (converted) with the addition of 0.2% of wetting agent to the surface of the covering soil.
(§2) Following the treatment, the pots are placed in a greenhouse and kept under good growth conditions for the test plants. After about 3 weeks, the effect of the preparations is scored visually in comparison with untreated controls (herbicidal effect in percent (%): 100% effect=plants have died, 0% effect=as control plants).

Echinochloa crus galli = assay: as above; settings: 1.0 kg or 0.32 kg of active substance per hectare, 100% = plants have died
From the text: as §1, §2

Avena fatua = assay: as above; settings: 1.0 kg or 0.32 kg of active substance per hectare, 100% = plants have died
From the text: as §1, §2

Alopecurus myosuroides = assay: as above; settings: 1.0 kg or 0.32 kg of active substance per hectare, 100% = plants have died
From the text: as §1, §2

Setaria viridis = assay: as above; settings: 1.0 kg or 0.32 kg of active substance per hectare, 100% = plants have died
From the text: as §1, §2

[1] = tested on: weed-grasses and broad-leaved weeds; assay: Post-emergence herbicidal effect, greenhouse pot test; settings: application rate of 1 kg and less of active substance per hectare, scored after 3 weeks
Procedure: Seeds of monocotyledonous or dicotyledonous weed plants or crop plants are planted in wood-fiber pots in sandy loam, covered with soil and grown in a greenhouse under good growth conditions. 2 to 3 weeks after sowing, the test plants are treated in the one-leaf stage. The compounds according to the invention, formulated in the form of wettable powders (WP), are then sprayed onto the green plant parts as aqueous suspension or emulsion at a water application rate of 600 I/ha (converted) with the addition of 0.2% of wetting agent. After 3 weeks' standing time of the test plants in the greenhouse under optimum growth conditions, the effect of the preparations is scored visually in comparison with untreated controls (herbicidal effect in percent (%): 100% effect=plants have died, 0% effect=as control plants).

SMILES | herbicidal pre-emergence activity against a number of harmful plants (harmful plants) | herbicidal activity (Echinochloa crus galli) | herbicidal activity (Avena fatua) | herbicidal activity (Alopecurus myosuroides) | herbicidal activity (Setaria viridis) | post-emergence activity against a broad spectrum of weed-grasses and broad-leaved weeds [1]
COC(=O)Cc1c(C)nn(-c2cncs2)c1-c1cnc(C)cn1 [Compound 8-217] | good herbicidal pre-emergence activity | ≥ 80% | ≥ 80% | ≥ 80% | ≥ 80% | good post-emergence activity
CCOC(=O)c1ncsc1-n1nc(C)c(CC(=O)OC)c1-c1ccccn1 [Compound 8-241, Ethyl 5-[4-(2-methoxy-2-oxoethyl)-3-methyl-5-(pyridin-2-yl)-1H-pyrazol-1-yl]-1,3-thiazole-4-carboxylate] | good herbicidal pre-emergence activity |  |  |  |  | good post-emergence activity
COC(=O)Cc1c(C)nn(-c2cnsc2)c1-c1ccccc1 [Compound 5-2] | good herbicidal pre-emergence activity |  |  |  |  | good post-emergence activity
COC(=O)Cc1c(C)nn(-c2ccns2)c1-c1ccc(Br)cn1 [Compound 2-120] | good herbicidal pre-emergence activity |  |  |  |  | good post-emergence activity
COC(=O)Cc1c(C)nn(-c2cncs2)c1-c1ccc(F)cc1 [Compound 8-133] | good herbicidal pre-emergence activity |  |  |  |  | good post-emergence activity
COC(=O)Cc1c(C)nn(-c2cncs2)c1-c1ccc(Br)cn1 [Compound 8-121] | good herbicidal pre-emergence activity |  |  |  |  | good post-emergence activity
COC(=O)Cc1c(C)nn(-c2cncs2)c1-c1ccco1 [Compound 8-4] | good herbicidal pre-emergence activity |  |  |  |  | good post-emergence activity
COC(=O)Cc1c(C)nn(-c2ccns2)c1-c1ccccc1 [Compound 2-2] | good herbicidal pre-emergence activity |  |  |  |  | good post-emergence activity
COC(=O)Cc1c(C)nn(-c2cnsc2)c1-c1cc2ccccc2cn1 [Compound 5-240] | good herbicidal pre-emergence activity |  |  |  |  | good post-emergence activity
COC(=O)Cc1c(C)nn(-c2cncs2)c1-c1cc(C)c(Cl)cn1 [Compound 8-294] | good herbicidal pre-emergence activity |  |  |  |  | good post-emergence activity
COC(=O)Cc1c(C)nn(-c2cncs2)c1-c1ccc(-c2ccccc2)cc1 [Compound 8-276] | good herbicidal pre-emergence activity |  |  |  |  | good post-emergence activity
COC(=O)Cc1c(C)nn(-c2cncs2)c1-c1cc2ccccc2cn1 [Compound 8-240] | good herbicidal pre-emergence activity |  |  |  |  | good post-emergence activity
COC(=O)Cc1c(C)nn(-c2cncs2)c1-c1ccc(Cl)cc1 [Compound 8-28, methyl[5-(4-chlorophenyl)-3-methyl-1-(1,3-thiazol-5-yl)-1H-pyrazol-4-yl]acetate] | good herbicidal pre-emergence activity |  |  |  |  | good post-emergence activity
